Test results from patent US20120172375A1, “COMPOUNDS AND METHODS OF PROMOTING OLIGODENDROCYTE PRECURSOR DIFFERENTIATION” (priority 2008, published 2012).
Where “and” joins values, the source holds several entries; their conditions need not be identical. Equal values may be shown once. Entries after “also recorded” stand apart in the source; their conditions may differ. Read-outs that look alike come from different tables or passages of the source.

Tests used:
Format in all cases: cell-based, mouse
[1] = tested on: oligodendrocyte progenitor cells; experiment: Western blot for myelin proteins PLP/DM20 and CNPase in treated oligodendrocyte progenitor cells; conditions: for induction of PLP/DM20 and CNPase expression at low concentrations: 0.01 and 0.1, 48 hrs (FIG. 2); for EC50: Mus musculus, Oligodendrocyte progenitor cell
Protocol: Oligodendrocyte progenitors were generated from embryonic neural progenitors growing in cell aggregates known as neurospheres (Nphs). Nph were prepared from embryos at 14.5 days of gestation obtained from timed pregnant females of either wild type mice or the proteolipid protein-enhanced-green fluorescence protein (Plp-EGFP) transgenic mouse. In brief, after separation of meninges and cerebellum, cerebrum tissue was mechanically triturated with a 1 ml Gilson pipette until total tissue disaggregation was achieved, filtered through a 70 μm cell strainer (Fisher Scientific, Pittsburg, Pa.) and plated in 25 cm^2 plastic culture flasks (2 brains/flask). Nph proliferation media (NPM) was DMEM/F12, B27 neuronal supplement (Gibco, Baltimore, Md.) and 10 ng/ml EGF (Sigma, St. Louis, Mo.). After 48-72 hr, floating Nphs were passaged at a 1:3 ratio in the same medium every 3-4 days. To generate oligodendrocyte progenitors, single cells suspensions were obtained by chemical disgregation with the mouse NeuroCult dissociation kit (StemCell Technologies, Alberta, Canada). The single cell suspension was filtered through a 70 μm cell strainer and plated on 96-well poly-D-Lysine (PDL)-coated plates at a cell density of 1.5×10^4 cells/cm^2. Cells were maintained in NPM supplemented with 10 ng/ml PDGF/bFGF instead of EGF. Bipolar, oligodendrocyte progenitor cells were observed 24 hours after plating. At the Moment of treatment to induce oligodendrocyte progenitor differentiation, the media was changed to OPC differentiation media containing NPM with a 1:10 dilution of PDGF/FGF.
For myelin protein analyses, cells were grown on 100 mm culture plates and after exposure to small molecules or controls were washed twice with ice-cold PBS. RIPA lysis buffer was added to the plates and the cells were scraped, collected and disrupted with a homogenizer on ice. Cell homogenates were then centrifuged at 6,000×g, 10 min, 4° C. and supernatants separated in a fresh tube. After adding Laemli loading buffer, proteins were denaturized at 70° C. for 10 mm and loaded in gradient gels (4-20, Criterion, BioRad, Calif.). Electroforetically separated proteins were electro-transferred to nitrocellulose membranes in a semi-dry apparatus and unspecific bonds were blocked with IRdye blocking solution for at least 1 hr at RT. After washing twice with TBS-T, primary antibodies were added and incubated over night at 4° C. Membranes were incubated with secondary, IRdye-infrared conjugated antibodies for 1 hr at RT and visualized on the Odyssey scanner.
(§1) The primary screening to select positive compounds was performed at a standard concentration of 10 μM with cell morphology analysis 48 hrs after treatment. Dose response curves at 48 hrs treatment time were performed to determine the minimum concentration compounds A, A-7 and B needed to induce cell maturation. We assessed oligodendrocyte differentiation by cell morphology changes, green fluorescence in cells generated from or Plp-EGFP transgenic mouse, immunostaining for myelin proteins and western blot for expression of the oligodendrocyte markers PLP/DM20 and 2′,3′, cyclic nucleotide 3′ phosphohydrolase (CNPase). EC50 values were also calculated based on results of western blot for myelin proteins and subsequent band densitometry analysis. Additionally, we followed cell differentiation induced over long time exposure to compounds A and B (7 days, 0.1-10 μM).

[2] = tested on: oligodendrocyte progenitor cells; experiment: Cell toxicity and viability (MTT, cell death); conditions: for cell toxicity and viability: concentrations below 50 μM
Protocol: Differentiation induced by selected compounds was further validated by fluorescence microscopy in cells generated from our Plp-EGFP transgenic mouse. Increased fluorescence in treated oligodendrocyte progenitor was indicative of cell maturation and was again scored following the same scale. 13 positive compounds were identified after secondary screening (FIG. 1). These were analyzed for cell toxicity assays by MTT were yellow 3-(4,5-Dimethylthiazol-2-yl)-2,5-diphenyltetrazolium bromide, a tetrazole (MTT) is reduced to purple formazan in the mitochondria of living cells, showing a solution color change measurable by OD620-590 (Data not shown). Further oligodendrocyte progenitor maturation in response to selected compounds was assessed by induction of myelin protein expression as determined by immunocytochemistry and western blot.

[3] = tested on: oligodendrocyte progenitor cells; experiment: Immunocytochemistry for PLP/DM20 and MBP, count of differentiated cells; conditions: for cell morphology after long-term exposure: compound B at the lowest concentrations (0.1 μM)
Protocol: Immunodetection of oligodendrocyte and myelin markers was performed. In brief, Oligodendrocyte cells plated on PDL-coated dishes were initially fixed in 2% paraformaldehyde (PFA) for 10 min at room temperature (RT) and then 4% PFA for 15 min, washed three times with PBS and permeabilized with 0.1% Triton X100 for 10 min at RT. After blocking with 3% BSA in PBS for 60 min a RT, the cells were incubated with primary antibodies at the indicated concentrations overnight (ON) at 4° C. The cells were washed three times with cold PBS incubated with secondary antibodies for 45 min at RT, and washed again before mounting. Immunostaining of tissue sections prepared with a sliding microtome (30 μm) was performed. In brief, tris buffered saline (TBS) containing 100 nM Sodium fluoride (TBSS) was used the all dilutions and washes. For antigen retrieval, sections were washed 3 times in TBSS, incubated in 5% methanol and 3% H2O2 for 10 min, washed 2 times, and then incubated in 10% Triton X-100 for 20 min. Blocking of unspecific bonds was performed by incubating the tissue sections with 10% NGS for 1 hr. Primary antibodies were diluted in 3% BSA containing 0.02% Triton X-100 and sections were incubated overnight in this solution. The next day the sections were washed 3 times in TBSS, followed by 1 hr incubation in secondary antibodies (1:1000) at 4° C. After several washes, the sections were mounted using Vectashield (Vector Laboratories, Burlingame, Calif.). Visualization of immunostained cells and tissue was performed on a Leica DMR (Wetzlar, Germany) or a Leica SP5 confocal microscope.
as §1
Compound A-7-induced oligodendrocyte progenitor maturation was also analyzed in comparison to control cells in immunostaining experiments to detect the myelin proteins MBP and PLP. Positive cells for these markers showing processes formation and membranous structures were counted versus total cells and counterstained with the nuclear dye Dapi after 48 hrs (Tables 3 and 4) and 7 days treatment with 0.1, 1 or 10 μM compound A-7 (FIG. 2, B).

[4] = 48 hrs, read-out: EC50 for CNPase expression (western blot)
[5] = 48 hrs, read-out: EC50 for PLP/DM20 expression (western blot)

CCS(=O)(=O)N1CCN(C(=O)COc2ccc(-c3ccccc3)cc2)CC1 [Compound A, 1-[(4-biphenylyloxy)acetyl]-4-(ethylsulfonyl)piperazine]
induction of PLP/DM20 and CNPase expression at low concentrations [1]: observed
low concentration at which increased expression of the major myelin proteins is already detectable ([1]; 48 hrs): 0.1 µM
EC50 [1, 4]: 10 nM
EC50 [1, 5]: 23 nM
PLP/DM20 Expression (WB, % of Control) ([1]; Table 3, 10 μM, 48 hrs): 195 ± 25.8 n = 6; p <0.01 % of Control
PLP/DM20 Expression (WB, % of Control) ([1]; Table 4, 1 μM): 201.2 ± 49.4 % of Control
PLP/DM20 Expression (WB, % of Control) ([1]; Table 4, 10 μM): 195.1 % of Control and 195.1 ± 25.8 % of Control
cell toxicity and viability [2]: did not show significant detrimental effects
immunostaining for PLP and MBP: expression of myelin proteins ([3]; 10 μM, 48 hr (FIG. 1)): increased expression
differentiated cells, percentage of total cells ([3]; 7 days after treatment, 0.1-10 μM, control 9.5%): about 25%
cell morphology after long-term exposure ([3]; 7 days after treatment): clear morphology changes; also recorded: formation of long-thick processes and major membranous structures
Differentiated Cells (IC, % of Control) ([3]; Table 3, 10 μM, 48 hrs): 186.1 ± 44.8 n = 4; p <0.05 % of Control
Differentiated Cells (IC, % of Control) ([3]; Table 4, 1 μM): 248.9 ± 47.5 % of Control
Differentiated Cells (IC, % of Control) ([3]; Table 4, 10 μM): 289.3 ± 66.6 % of Control

CC(C)N1CCN(C(=O)COc2ccc(-c3ccccc3)cc2)CC1 [Compound A-7, 1-(Biphenyl-4-yloxy)acetyl-4-isopropylpiperazine]
myelin protein PLP/DM20 expression compared to other compounds and controls [1]: dramatic up-regulation
reduction of the amount necessary to induce the same effect as 10 μM compound A [1]: 1-2 orders of magnitude
induction of PLP/DM20 expression relative to levels of the A treated cells ([1]; 10 μM): 147%
effect at 50 μM ([1]; 50 μM): slightly decreases
induction of PLP/DM20 and CNPase expression at low concentrations [1]: observed
EC50 [1, 4]: 70 nM
EC50 [1, 5]: 30 nM
PLP/DM20 Expression (WB, % of Control) ([1]; Table 3, 10 μM, 48 hrs): 286.8 % of Control
PLP/DM20 Expression (WB, % of Control) ([1]; Table 3, 10 μM, 48 hrs, listed as drawing 48): 286.8 ± 16.5 n = 6; p <0.01 % of Control
PLP/DM20 Expression (WB, % of Control) ([1]; Table 4, 1 μM): 263.3 % of Control and 263.3 ± 25.2 % of Control
PLP/DM20 Expression (WB, % of Control) ([1]; Table 4, 10 μM): 286.8 ± 16.5 % of Control
cell toxicity and viability [2]: did not show significant detrimental effects
percentage of differentiated cells compared to A treated cells ([3]; 10 μM): 159.1%
concentration at which induction of oligodendrocyte differentiation reached maximum levels ([3]; 48 hrs and 7 days treatment): 0.1 µM
cell morphology after long-term exposure ([3]; 7 days after treatment): formation of long-thick processes and major membranous structures
Differentiated Cells (IC, % of Control) ([3]; Table 3, 10 μM, 48 hrs, 10 µM): 296.1 % of Control
Differentiated Cells (IC, % of Control) ([3]; Table 3, 10 μM, 48 hrs, listed as drawing 48, 10 µM): 296.1 ± 19 n = 4; p <0.05 % of Control
Differentiated Cells (IC, % of Control) ([3]; Table 4, 1 μM, 1 µM): 343 % of Control and 343.2 ± 52.3 % of Control
Differentiated Cells (IC, % of Control) ([3]; Table 4, 10 μM): 296 ± 38.06 % of Control

O=[N+]([O-])c1ccc(F)c(NS(=O)(=O)c2ccc(F)cc2)c1 [Compound B, 4-fluoro-N-(2-fluoro-5-nitrophenyl)benzenesulfonamide]
induction of PLP/DM20 and CNPase expression at low concentrations [1]: observed
oligodendrocyte cell differentiation at high doses compared with control cells ([1]; 10-50 μM): did not induce higher oligodendrocyte cell differentiation
concentrations with significant/effective induction of myelin protein expression (western blot densitometry) ([1]; 48 hrs): 0.01 to 1 µM
EC50 [1, 4]: 5 nM
EC50 [1, 5]: 7 nM
concentrations with toxic effect (induction of cell death) [2]: > 10 µM
concentrations with toxic effect (MTT cell viability) ([2]; MTT): higher than 1 μM
cell morphology after long-term exposure ([3]; 7 days after treatment): clear morphology changes; also recorded: formation of long-thick processes and major membranous structures
percentage of mature cells ([3]; 7 days, 10 μM): dropped to control levels
